Results from the OPERA property sets (Mansouri et al. 2018).

Q: For `O=C(O)CSC1=NS(=O)(=O)c2ccccc2N1`, which logP is on record?
A: 0.18

Q: With `Cc1ccc2c(c1)NC(CCCC(=O)O)=NS2(=O)=O` as the compound, how does the logP read?
A: 0.33

Q: Which logP does the source give for `O=C(O)CCCC1=NS(=O)(=O)c2cc(Br)cc(Br)c2N1` here?
A: 1.51

Q: With `O=C(O)CCCC1=NS(=O)(=O)c2cc(Cl)c(Cl)cc2N1` as the compound, how does the logP read?
A: 1.8

Q: Which logP does the source give for `O=C(O)CSC1=NS(=O)(=O)c2cc(Cl)cc(Cl)c2N1` here?
A: 1.09

Q: With `O=C(O)CCC1=NS(=O)(=O)c2ccc(Cl)cc2N1` as the compound, how does the logP read?
A: 0.72

Q: For `O=C(O)CCSC1=NS(=O)(=O)c2cc(Br)ccc2N1`, which logP is on record?
A: 1.77

Q: With `O=C(O)CCSC1=NS(=O)(=O)c2ccccc2N1` as the compound, how does the logP read?
A: 0.66

Q: For `O=C(O)CSC1=NS(=O)(=O)c2cc(Cl)ccc2N1`, which logP is on record?
A: 0.72

Q: For `O=C(O)CSC1=NS(=O)(=O)c2cc(Br)cc(Br)c2N1`, which logP is on record?
A: 1.16

Q: With `COc1ccc2c(c1)NC(SCC(=O)O)=NS2(=O)=O` as the compound, how does the logP read?
A: 0.37

Q: Which logP does the source give for `O=C(O)CCC1=NS(=O)(=O)c2ccccc2N1` here?
A: -0.18

Q: With `O=C(O)CCSC1=NS(=O)(=O)c2cc(Cl)ccc2N1` as the compound, how does the logP read?
A: 1.43

Q: With `O=C(O)CCCC1=NS(=O)(=O)c2ccc(C(F)(F)F)cc2N1` as the compound, how does the logP read?
A: 1.24

Q: Which logP does the source give for `Cc1ccc2c(c1)NC(CCC(=O)O)=NS2(=O)=O` here?
A: 0.16

Q: For `O=C(O)CCCC1=NS(=O)(=O)c2cc(Cl)ccc2N1`, which logP is on record?
A: 0.83

Q: With `O=C(O)CCCC1=NS(=O)(=O)c2ccc(Cl)cc2N1` as the compound, how does the logP read?
A: 0.83

Q: Which logP does the source give for `O=C(O)CSC1=NS(=O)(=O)c2ccc(Cl)c(Cl)c2N1` here?
A: 1.1

Q: For `O=C(O)CCC1=NS(=O)(=O)c2cc(Br)ccc2N1`, which logP is on record?
A: 0.93

Q: Which logP does the source give for `O=C(O)CCC1=NS(=O)(=O)c2cc(Cl)cc(Cl)c2N1` here?
A: 1.04

Q: With `O=C(O)CSC1=NS(=O)(=O)c2cc(Br)ccc2N1` as the compound, how does the logP read?
A: 0.92

Q: Which logP does the source give for `Cc1ccc2c(c1)NC(SCCC(=O)O)=NS2(=O)=O` here?
A: 1.16

Q: For `COc1ccc2c(c1)NC(SCCC(=O)O)=NS2(=O)=O`, which logP is on record?
A: 0.96

Q: For `O=C(O)CSC1=NS(=O)(=O)c2ccc(Cl)cc2N1`, which logP is on record?
A: 0.82

Q: For `O=C(O)CCSC1=NS(=O)(=O)c2ccc(Cl)cc2N1`, which logP is on record?
A: 1.6

Q: Which logP does the source give for `COc1ccc2c(c1)NC(CCC(=O)O)=NS2(=O)=O` here?
A: 0.18

Q: For `O=C(O)CCSC1=NS(=O)(=O)c2cc(Br)cc(Br)c2N1`, which logP is on record?
A: 2.04

Q: Which logP does the source give for `COc1ccc2c(c1)NC(CCCC(=O)O)=NS2(=O)=O` here?
A: 0.12

Q: With `O=C(O)CSC1=NS(=O)(=O)c2ccc(C(F)(F)F)cc2N1` as the compound, how does the logP read?
A: 1.62

Q: With `O=C(O)CCCC1=NS(=O)(=O)c2cc(Cl)cc(Cl)c2N1` as the compound, how does the logP read?
A: 1.22

Q: For `Cc1ccc2c(c1)NC(SCC(=O)O)=NS2(=O)=O`, which logP is on record?
A: 0.7

Q: Which logP does the source give for `O=C(O)CCC1=NS(=O)(=O)c2cc(Br)cc(Br)c2N1` here?
A: 1.35

Q: With `O=C(O)CCSC1=NS(=O)(=O)c2cc(Cl)c(Cl)cc2N1` as the compound, how does the logP read?
A: 1.81

Q: With `O=C(O)CCCC1=NS(=O)(=O)c2cc(Br)ccc2N1` as the compound, how does the logP read?
A: 1.02

Q: With `O=C(O)CCSC1=NS(=O)(=O)c2ccc(C(F)(F)F)cc2N1` as the compound, how does the logP read?
A: 1.96

Q: Which logP does the source give for `O=C(O)CCC1=NS(=O)(=O)c2cc(Cl)ccc2N1` here?
A: 0.69

Q: Which logP does the source give for `O=C(O)CCC1=NS(=O)(=O)c2ccc(C(F)(F)F)cc2N1` here?
A: 1.3

Q: Which logP does the source give for `O=C(O)CCSC1=NS(=O)(=O)c2cc(Cl)cc(Cl)c2N1` here?
A: 1.79

Q: For `O=C(O)CCC1=NS(=O)(=O)c2cc(Cl)c(Cl)cc2N1`, which logP is on record?
A: 1.5
